According to ChEMBL document CHEMBL1201862, “PubChem BioAssay data set” (2004):
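Tested at 5 concentrations; 48 h exposure; 96-well plates; endpoints linearly interpolated, else capped at highest concentration. GI50 marks 50% less growth.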 Activity calls are given as the source filed them. No stated cut-off is given here; in the data, active = GI50 up to about 1.1 µM and inactive = higher.

What was measured:
Test in all cases: inhibition of tumour cell growth, NCI panel, 48 h
OVCAR-4 = tested on: OVCAR-4
SNB-75 = tested on: SNB-75
U-251 = tested on: U-251
SF-539 = tested on: SF-539
LOX IMVI = tested on: LOX IMVI
MDA-MB-231 = tested on: MDA-MB-231
HCT-116 = tested on: HCT-116
HL-60 = tested on: HL-60
ACHN = tested on: ACHN
M14 = tested on: M14
NCI-H226 = tested on: NCI-H226
DU-145 = tested on: DU-145
OVCAR-5 = tested on: OVCAR-5
COLO 205 = tested on: COLO 205
HCC 2998 = tested on: HCC 2998
SK-MEL-2 = tested on: SK-MEL-2
Malme-3M = tested on: Malme-3M
SK-OV-3 = tested on: SK-OV-3
MDA-N = tested on: MDA-N
RXF 393 = tested on: RXF 393
OVCAR-3 = tested on: OVCAR-3
TK-10 = tested on: TK-10
NCI-H460 = tested on: NCI-H460
SN12C = tested on: SN12C
K562 = tested on: K562
EKVX = tested on: EKVX
NCI/ADR-RES = tested on: NCI/ADR-RES
SF-295 = tested on: SF-295
UO-31 = tested on: UO-31
SK-MEL-28 = tested on: SK-MEL-28
SW-620 = tested on: SW-620
CAKI-1 = tested on: CAKI-1
SNB-19 = tested on: SNB-19
SK-MEL-5 = tested on: SK-MEL-5
BT-549 = tested on: BT-549
SF-268 = tested on: SF-268
NCI-H522 = tested on: NCI-H522
MDA-MB-435 = tested on: MDA-MB-435
MOLT-4 = tested on: MOLT-4
CCRF-CEM = tested on: CCRF-CEM
HCT-15 = tested on: HCT-15
A498 = tested on: A498
KM12 = tested on: KM12
UACC-257 = tested on: UACC-257
MCF7 = tested on: MCF7
PC-3 = tested on: PC-3
HT-29 = tested on: HT-29
HOP-92 = tested on: HOP-92
A549 = tested on: A549
IGROV-1 = tested on: IGROV-1
786-0 = tested on: 786-0
HOP-62 = tested on: HOP-62
OVCAR-8 = tested on: OVCAR-8
NCI-H23 = tested on: NCI-H23
UACC-62 = tested on: UACC-62
RPMI-8226 = tested on: RPMI-8226
SR = tested on: SR
Hs-578T = tested on: Hs-578T
T47D = tested on: T47D

Q: Which results are given for COc1ccc(Nc2nnc(CCCCCCCCc3nnc(Nc4ccc(OC)cc4)o3)o2)cc1?
A: GI50 (OVCAR-4): > 100 µM (inactive); GI50 (SNB-75): > 100 µM (inactive); GI50 (U-251): > 100 µM (inactive); GI50 (SF-539): > 100 µM (inactive); GI50 (LOX IMVI): > 100 µM (inactive); GI50 (MDA-MB-231): > 100 µM (inactive); GI50 (HCT-116): > 100 µM (inactive); GI50 (HL-60): > 100 µM (inactive); GI50 (ACHN): > 100 µM (inactive); GI50 (M14): > 100 µM (inactive); GI50 (NCI-H226): > 100 µM (inactive); GI50 (DU-145): > 100 µM (inactive); GI50 (OVCAR-5): > 100 µM (inactive); GI50 (COLO 205): > 100 µM (inactive); GI50 (HCC 2998): > 100 µM (inactive); GI50 (SK-MEL-2): > 100 µM (inactive); GI50 (Malme-3M): > 100 µM (inactive); GI50 (SK-OV-3): > 100 µM (inactive); GI50 (MDA-N): > 100 µM (inactive); GI50 (RXF 393): > 100 µM (inactive); GI50 (OVCAR-3): > 100 µM (inactive); GI50 (TK-10): > 100 µM (inactive); GI50 (NCI-H460): > 100 µM (inactive); GI50 (SN12C): > 100 µM (inactive); GI50 (K562): > 100 µM (inactive); GI50 (EKVX): > 100 µM (inactive); GI50 (NCI/ADR-RES): > 100 µM (inactive); GI50 (SF-295): > 100 µM (inactive); GI50 (UO-31): > 100 µM (inactive); GI50 (SK-MEL-28): > 100 µM (inactive); GI50 (SW-620): > 100 µM (inactive); GI50 (CAKI-1): > 100 µM (inactive); GI50 (SNB-19): > 100 µM (inactive); GI50 (SK-MEL-5): > 100 µM (inactive); GI50 (BT-549): 80.9 µM (inactive); GI50 (SF-268): > 100 µM (inactive); GI50 (NCI-H522): 61.7 µM (inactive); GI50 (MDA-MB-435): > 100 µM (inactive); GI50 (MOLT-4): > 100 µM (inactive); GI50 (CCRF-CEM): > 100 µM (inactive); GI50 (HCT-15): > 100 µM; GI50 (A498): > 100 µM (inactive); GI50 (KM12): > 100 µM (inactive); GI50 (UACC-257): > 100 µM (inactive); GI50 (MCF7): > 100 µM (inactive); GI50 (PC-3): > 100 µM (inactive); GI50 (HT-29): > 100 µM (inactive); GI50 (HOP-92): > 100 µM (inactive); GI50 (A549): > 100 µM (inactive); GI50 (IGROV-1): > 100 µM (inactive); GI50 (786-0): > 100 µM (inactive); GI50 (HOP-62): > 100 µM (inactive); GI50 (OVCAR-8): > 100 µM (inactive); GI50 (NCI-H23): > 100 µM (inactive)

Q: How did the GI50 (UACC-62) turn out when C=CCOC(=O)N1[C@H]2C#C/C=C\C#C[C@]3(O)C(=O)C[C@H](C)[C@]24O[C@]43C2=CC(=O)C=CC21OC (some centres undefined) was run?
A: The GI50 was 31.2 µM (inactive).

Q: What about the GI50 (OVCAR-4) of the same compound?
A: The GI50 was 26.4 µM (inactive).

Q: What about the GI50 (SNB-75) of the same compound?
A: The GI50 was 35.2 µM (inactive).

Q: And the GI50 (U-251)?
A: The GI50 was 37.7 µM (inactive).

Q: And the GI50 (SF-539)?
A: Its GI50 is 20.6 µM (inactive).

Q: What about the GI50 (MDA-MB-231) of the same compound?
A: The GI50 was 28.3 µM (inactive).

Q: What about the GI50 (HCT-116) of the same compound?
A: The GI50 was 19.8 µM (inactive).

Q: And the GI50 (HL-60)?
A: The GI50 was 30.8 µM (inactive).

Q: What about the GI50 (ACHN) of the same compound?
A: The GI50 was 20.2 µM (inactive).

Q: And the GI50 (M14)?
A: The GI50 was 20.4 µM (inactive).

Q: And the GI50 (NCI-H226)?
A: The GI50 was 30.5 µM (inactive).

Q: And the GI50 (DU-145)?
A: The GI50 was 38.7 µM (inactive).

Q: And the GI50 (OVCAR-5)?
A: Its GI50 is 35.2 µM (inactive).

Q: What about the GI50 (COLO 205) of the same compound?
A: Its GI50 is 13.6 µM (inactive).

Q: And the GI50 (HCC 2998)?
A: Its GI50 is 26.5 µM (inactive).

Q: What about the GI50 (RPMI-8226) of the same compound?
A: The GI50 was 21.2 µM (inactive).

Q: What about the GI50 (SK-MEL-2) of the same compound?
A: The GI50 was 18 µM (inactive).

Q: And the GI50 (Malme-3M)?
A: Its GI50 is 43.7 µM (inactive).

Q: What about the GI50 (SK-OV-3) of the same compound?
A: Its GI50 is 60.1 µM (inactive).

Q: What about the GI50 (MDA-N) of the same compound?
A: Its GI50 is 28.6 µM (inactive).

Q: And the GI50 (RXF 393)?
A: Its GI50 is 20.9 µM (inactive).

Q: And the GI50 (TK-10)?
A: Its GI50 is 18.4 µM (inactive).

Q: What about the GI50 (NCI-H460) of the same compound?
A: The GI50 was 13.9 µM (inactive).

Q: What about the GI50 (SN12C) of the same compound?
A: The GI50 was 25 µM (inactive).

Q: And the GI50 (K562)?
A: The GI50 was 42.2 µM (inactive).

Q: What about the GI50 (EKVX) of the same compound?
A: Its GI50 is 44 µM (inactive).

Q: And the GI50 (NCI/ADR-RES)?
A: The GI50 was 43.8 µM (inactive).

Q: And the GI50 (SF-295)?
A: Its GI50 is 44 µM (inactive).

Q: And the GI50 (UO-31)?
A: The GI50 was 32 µM (inactive).

Q: What about the GI50 (SK-MEL-28) of the same compound?
A: Its GI50 is 95.9 µM (inactive).

Q: And the GI50 (SW-620)?
A: Its GI50 is 32.8 µM (inactive).

Q: And the GI50 (CAKI-1)?
A: The GI50 was 33.1 µM (inactive).

Q: What about the GI50 (SNB-19) of the same compound?
A: The GI50 was 38.3 µM (inactive).

Q: And the GI50 (SF-268)?
A: The GI50 was 50.6 µM (inactive).

Q: And the GI50 (NCI-H522)?
A: Its GI50 is 18.6 µM (inactive).

Q: And the GI50 (MDA-MB-435)?
A: Its GI50 is 16.6 µM (inactive).

Q: What about the GI50 (MOLT-4) of the same compound?
A: Its GI50 is 3.72 µM (inactive).

Q: What about the GI50 (CCRF-CEM) of the same compound?
A: Its GI50 is 16.8 µM (inactive).

Q: What about the GI50 (HCT-15) of the same compound?
A: The GI50 was 31.4 µM.

Q: And the GI50 (A498)?
A: Its GI50 is 2.35 µM (inactive).

Q: What about the GI50 (SR) of the same compound?
A: Its GI50 is 4.62 µM (inactive).

Q: And the GI50 (Hs-578T)?
A: Its GI50 is 49 µM (inactive).

Q: What about the GI50 (KM12) of the same compound?
A: The GI50 was 32.9 µM (inactive).

Q: And the GI50 (UACC-257)?
A: The GI50 was 19.4 µM (inactive).

Q: And the GI50 (MCF7)?
A: The GI50 was 16.9 µM (inactive).

Q: What about the GI50 (PC-3) of the same compound?
A: Its GI50 is 30.6 µM (inactive).

Q: And the GI50 (HT-29)?
A: The GI50 was 27.7 µM (inactive).

Q: What about the GI50 (T47D) of the same compound?
A: The GI50 was 64.9 µM (inactive).

Q: What about the GI50 (HOP-92) of the same compound?
A: Its GI50 is 38 µM (inactive).

Q: What about the GI50 (A549) of the same compound?
A: The GI50 was 23.2 µM (inactive).

Q: What about the GI50 (IGROV-1) of the same compound?
A: The GI50 was 16.7 µM (inactive).

Q: What about the GI50 (786-0) of the same compound?
A: Its GI50 is 11.6 µM (inactive).

Q: And the GI50 (HOP-62)?
A: Its GI50 is 40.2 µM (inactive).

Q: And the GI50 (OVCAR-8)?
A: Its GI50 is 22.5 µM (inactive).

Q: And the GI50 (NCI-H23)?
A: The GI50 was 27.2 µM (inactive).
